A short description of data set [1]: Leaching of Witwatersrand gold ore, parameter studies (Example 2). The settings on record: oxygen/permanganate, Eh above 60 mV; 25° C., 0.9 g/l DTO. From the text:
A head sample was submitted with every batch of samples in order to minimise errors caused by discrepancies in analysis among batches. The metal extractions for a particular batch of samples were therefore calculated using the head sample analysis from the same batch.
Deionised water was used in all preparation, dissolution, leach and washing steps.
The leach procedure was as follows:
The required amounts of ligand and alkaline water were mixed in a jacketed leach reactor until the ligand was fully dissolved. The ore was then added to the solution (unless otherwise specified, initial solids concentration was 17% m/m) and the reactor lid was fitted on. A stirring impeller, pH and (Ag/AgCl) redox electrodes, titration dispensing tube, temperature probe and gas distribution tube (if oxygen was used) were fitted into ports in the lid. The ore was then leached for the required amount of time. A water bath was used to maintain the leach temperature for the duration of the leach. The leach pH was controlled with an autotitrator. If oxygen was the oxidant, a mass flow controller was used to control oxygen-flow into the solution. At the end of the leach period, the slurry was filtered and the residue was given at least two water washes using water of the same pH as the leach solution, followed by a final wash with deionised water. […]

A short description of the next data set: physchem. The format is physicochemical. The protocol:
Prior to the leach, the ligand is dissolved in water which has been pre-adjusted to the leach pH. […] It was suspected that the ligand became doubly deprotonated at pH 13.5 and above.

Molecules are shown by their SMILES. Values after ≈ are worked out from the molar mass of the structure shown.

By pKa is commonly meant the pH at which an ionisable group is half protonated. High values mean a weaker acid or stronger base, low ones a stronger acid or weaker base. What is called solubility is the concentration that dissolves in the medium under given conditions. `NC(=S)C(N)=S` [DTO, dithiooxamide]: the “Leach time to maximum gold extraction” value in data set [1] amounted to 4 h. Also, in the data set “physchem”, the Solubility in water entry was “does not have good solubility in water”, the “Solubility of the ligand” value was “extremely low” and the pKa stood at 11. The solubility in “physchem” (pH 12, aqueous buffer, thermodynamic from solid) was about 900 µg/mL (≈ 7.49 mM). Moreover, in “physchem” (pH 13.5 to 14 compared with pH 11 to 13), the “Dissolution of ligand in water pre-adjusted to leach pH” value is listed as “dissolved far more readily”.

For the origin of these results see patent publication US8936667B2, “Aqueous leaching process for recovery of precious metals with addition of di-thiooxamide ligand” (Anglo Operations Limited, priority 2009, dated 2015).
